Measured values as given in patent publication US8236533B2, “Process for the production of γ-glutamylcysteine” (NewSouth Innovations PTY Limited, priority 2005, dated 2012).
≈ marks a conversion by molar mass, not a printed value. Where “and” joins values, the source holds several entries; their conditions need not be identical. Equal values may be shown once. Values belong to the compound of their own block, whether it stands above or below them.

Columns and labels:
glutathione levels = experiment: utilization of GGC in mice: glutathione levels; assay type: in vivo; conditions: preliminary studies
From the text: The final form of GGC, whether it be in the reduced state as γ-glutamylcysteine or in the disulphide form as bis-γ-glutamylcystine, is dependent on the final application of the dipeptide. […] The oxidised form bis-γ-glutamylcystine is more likely to be suitable for application as a nutraceutical supplement as no special precautions to prevent the oxidation of the sulphydryl, would be required, whereas application in the treatment of poisoning or as an antioxidant in food or cosmetics would require the reducing power of the sulphydryl of γ-glutamylcysteine. Whatever the desired form, both are relatively easily interconverted by reduction which can be achieved either chemically (Jocelyn, P. C., Chemical reduction of disulfides. Methods in Enzymology, 1987. 143: p. 246-56), electrochemically (Genders, J. D., N. L. Weinberg, and D. J. Mazur, High yield methods for electrochemical preparation of cysteine and analogues. 1988, U.S. Pat. No. 5,106,463. The Electrosynthesis Company, Inc.) or oxidized to the disulphide form simply by exposing a solution to air (oxygen) with a trace amount of copper or iron salt added to catalyse the reaction.

physchem [1] = experiment: physchem
isoelectric point (pI) = assay type: physicochemical
physchem [2] = conditions: pH 9.1, aqueous with cosolvent or surfactant or cyclodextrin, thermodynamic from solid
[3] = stability on removal of water by evaporation; assay type: physicochemical; conditions: temperatures above 40° C.
Method: Example 13 describes purification of GGC from a mixture comprising GGC and 2-mercaptoethanol, with subsequent freeze-drying. However, it is not expected that freeze drying would be an economic option at industrial scale. Removal of water by conventional evaporation at temperatures above 40° C. results in degradation of the product. However, a process of concentration by nanofiltration is expected to be most suitable at industrial scale as it is both low temperature and a cost effective method for water removal. […] After the removal of the majority of water by nanofiltration and a pH adjustment to the pH of the isoelectric point (GGC=pH 2.8) the addition of an antisolvent such as ethanol or acetone can be added to initiate spontaneous crystallization. The final product can be collected by filtration and dried under reduced pressure.

- solubility (aqueous solubility; water): 2000 mM
Compound: CC(=O)NCSC[C@H](N)C(=O)O [S-acetamidomethylcysteine]

- solubility limit (aqueous solubility; pH 8.5 in 100 mM phosphate buffer): 8.4 mM (≈ 2240 µg/mL)
Compound: N[C@@H](CCC(=O)Nc1ccc([N+](=O)[O-])cc1)C(=O)O [GPNA, L-γ-glutamyl-p-nitroanilide]

Compound: N[C@@H](CCC(=O)N[C@@H](CSSC[C@H](NC(=O)CC[C@H](N)C(=O)O)C(=O)O)C(=O)O)C(=O)O [bis-γ-glutamylcystine]
- glutathione levels after administration (glutathione levels): significantly increase glutathione levels

- solubility (physchem [1]): > 20000 µg/mL
Compound: COC(=O)[C@@H](N)CSSC[C@H](N)C(=O)OC.Cl.Cl [CDME, cystine dimethyl ester dihydrochloride]

- isoelectric point (pI) (isoelectric point (pI)): 5.8
Compound: CCOC(=O)CC[C@H](N)C(=O)O [GEE, glutamic acid γ-ethyl ester]

Compound: N[C@@H](CCC(=O)NC(CSSCCO)C(=O)O)C(=O)O (stereo partly shown) [GGC-Merc, γ-glutamylcysteine-mercaptoethanol disulphide]
- isoelectric point (pI) (isoelectric point (pI)): 3.0

- solubility (physchem [2]; 50% DMF in diethanolamine (DEA) buffer): ~30 mM
- solubility (physchem [2]; 50% DMF in water): ~9000 µg/mL
- solubility (aqueous solubility; aqueous solution, pH 3, aqueous buffer): 100 µg/mL
- solubility (aqueous solubility; phosphate buffer, pH 8.5, aqueous buffer): 16.6 mM
- solubility (aqueous solubility; water, 37 °C, pH 9.1, water): ~5000 µg/mL
Compound: N[C@@H](CSSC[C@H](N)C(=O)O)C(=O)O [cystine]

- isoelectric point (pI) (isoelectric point (pI)): 2.8
- stability on conventional evaporation of water [3]: degradation
Compound: N[C@@H](CCC(=O)N[C@@H](CS)C(=O)O)C(=O)O [GGC, γ-Glutamylcysteine]
- glutathione levels after administration (glutathione levels): significantly increase glutathione levels

- isoelectric point (pI) (isoelectric point (pI)): 5.2 and 5.3
- aqueous solubility (aqueous solubility): ~20000 µg/mL (≈ 101 mM)
Compound: N[C@@H](CSSCCO)C(=O)O [Cys-Merc, cysteine-mercaptoethanol mixed disulphide]
